Assay: Solvent scope of N,N′-dialkylaldaramides (1%) or N,N′-dialkylpentaramides (1%): gelation/solubility behaviour in solvents
Assay type: physicochemical
Set-up: key: g = gelation; s = soluble; p = precipitates; c = crystallizes; ns = not soluble; v = viscous; g* = unstable gel, precipitates; cg = crystalline gel
Conditions: 1% gelling agent
Text: It will be understood that the use of the present gelling agents or thickeners to prepare a gel or to thicken a composition is also encompassed by the invention. As is well known, gelling behavior of compounds or compositions is highly unpredictable. […] Preferably, the gelling phenomenon is thermo reversible.
Preferred examples include aromatic and nonaromatic hydrocarbons, alcohols, ethers, esters, aldehydes, alkanoic acids, epoxides, amines, halogenated hydrocarbons, silicon oils, vegetable oils, phosphoric esters, sulfoxides, water and mixtures thereof. In order to obtain a gel, the gelling agent or thickener is preferably mixed with the composition to be transformed to a gel in an amount of between 0.01 and 50 wt. %, based on the weight of the composition. In a preferred embodiment, the mixture of the gelling agent or thickener and the composition is heated to allow for an even better gel formation or thickening. Typically, the heating will involve raising the temperature of the mixture to about 30-175° C. until a clear solution is obtained. In an alternative embodiment, the gelling agent is first dissolved in a polar or apolar solvent and then added to or sprayed into a composition or solvent to be converted into a gel.
Solvent scope of N,N′-dialkylaldaramides (1%) or N,N′-dialkylpentaramides (1%) 1-24 refers to the compounds prepared in Examples 1-23)

Gelation/solubility behaviour in 1,2-dichloroethane | Gelation/solubility behaviour in 2-octanol | Gelation/solubility behaviour in 2-propanol | Gelation/solubility behaviour in Cyclohexane | Gelation/solubility behaviour in Dimethylsulfoxide | Gelation/solubility behaviour in Ethanol | Gelation/solubility behaviour in Hexadecane | Gelation/solubility behaviour in Toluene | Gelation/solubility behaviour in Water | Gelation/solubility behaviour in n-butylacetate | Gelation/solubility behaviour in p-xylene | Gelation/solubility behaviour in 2-methoxyethanol (2-methoxyethanol) | Gelation/solubility behaviour in methyl benzoic acid (methyl benzoic acid) | Gelation/solubility behaviour in methyl laurate (methyl laurate) | Gelation/solubility behaviour in silicon oil (silicon oil) | Molecule
c | c | c | p | c | c | p | p | ns | c | p |  |  |  |  | CCCCCCCC/C=C\CCCCCCCCNC(=O)[C@@H](O)[C@@H](O)[C@H](O)[C@@H](O)C(=O)NCCCCCCCC/C=C\CCCCCCCC [Example 19, dioleyl D-glucaramide]
c | p | c | ns | s | c | ns | p | ns | p | p |  |  |  |  | CO[C@@H]([C@H](O)[C@H](O)C(=O)NC1CCCCC1)[C@@H](O)C(=O)NC1CCCCC1 [Example 20, 3-O-methyl-dicyclohexyl D-glucaramide]
c | p | c | ns | c | ns | ns | ns | ns | ns | ns |  |  |  |  | CCCCCCCCCCCCNC(=O)[C@@H](O)[C@@H](O)[C@H](O)[C@H](O)C(=O)NCCCCCCCCCCCC [Example 13, didodecyl D-mannaramide]
c | s | cg | ns | p | p | ns | ns | ns | ns | ns |  |  |  |  | O=C(NC1CCCCCCCCCCC1)[C@@H](O)[C@@H](O)[C@H](O)[C@H](O)C(=O)NC1CCCCCCCCCCC1 [Example 16, dicyclododecyl D-mannaramide]
Ns | Ns |  | Ns |  |  | Ns | Ns | Ns | Ns | Ns |  |  |  |  | CCCCNC(=O)[C@@H](O)[C@@H](O)[C@H](O)[C@H](O)C(=O)NCCCC [Example 2, dibutyl D-mannaramide]
ns | ns | c | ns | s | c | ns | ns | ns | ns | ns |  |  |  |  | CCCCNC(=O)[C@@H](O)[C@H](O)[C@H](O)[C@@H](O)C(=O)NCCCC [Example 3, dibutyl galactaramide]
ns | ns | c | ns | s | c | ns | ns | ns | ns | ns |  |  |  |  | CCCCCCCCNC(=O)[C@@H](O)[C@@H](O)[C@H](O)[C@@H](O)C(=O)NCCCCCCCC [Example 8, dioctyl D-glucaramide]
ns | ns | c | ns | c | c | ns | ns | ns | ns | ns |  |  |  |  | dicyclohexyl galactaramide [Example 7]
p | p | p | g | p | p | ns | p |  | p | p |  |  |  |  | CO[C@@H]([C@H](O)[C@H](O)C(=O)NC1CCCCCCCCCCC1)[C@@H](O)C(=O)NC1CCCCCCCCCCC1 [Example 22, 3-O-methyl-dicyclododecyl D-glucaramide]
 |  |  | p |  |  |  |  |  | p | p | p | p | p | v | O=C(NC1CCCCC1)[C@@H](O)[C@@H](O)[C@H](O)[C@@H](O)C(=O)NC1CCCCCCCCCCC1 [Example 23, N1-cyclododecyl, N6-cyclohexyl D-glucaramide]
s | p | p | ns | s | s | ns | p | ns | p | p |  |  |  |  | O=C(NC1CCCCC1)[C@@H](O)[C@@H](O)[C@@H](O)C(=O)NC1CCCCC1 [Example 4, dicyclohexyl D-ribaramide]

Molecule | Gelation/solubility behaviour in 1,2-dichloroethane | Gelation/solubility behaviour in 2-octanol | Gelation/solubility behaviour in 2-propanol | Gelation/solubility behaviour in Cyclohexane | Gelation/solubility behaviour in Dimethylsulfoxide | Gelation/solubility behaviour in Ethanol | Gelation/solubility behaviour in Hexadecane | Gelation/solubility behaviour in Toluene | Gelation/solubility behaviour in Water | Gelation/solubility behaviour in n-butylacetate | Gelation/solubility behaviour in p-xylene | Gelation/solubility behaviour in 2-methoxyethanol (2-methoxyethanol) | Gelation/solubility behaviour in methyl benzoic acid (methyl benzoic acid) | Gelation/solubility behaviour in methyl laurate (methyl laurate) | Gelation/solubility behaviour in silicon oil (silicon oil)
CCCCNC(=O)[C@@H](O)[C@@H](O)[C@H](O)[C@@H](O)C(=O)NCCCC [Example 1, dibutyl D-glucaramicle] | ns |  |  | ns |  |  | ns | ns | ns | ns | ns |  |  |  | 

From US6930203B2, “Gelling agents or thickeners” (Applied NanoSystems B.V., priority 2001, dated 2005)
